Test results reported in US20260216348A1, “IRAK DEGRADATION AGENT AND USE THEREOF” (Increland, priority 2023, published 2026).
Read-outs that look alike come from different tables or passages of the source.

Tests used:
IMQ psoriasis model = experiment: IMQ (imiquimod)-induced psoriasis model; type: in vivo, BALB/c mice; details: QD, Mean ± SD, n = 7; for PASI Score d 6: Model 8.85 ± 1.66; for ΔSkin Thickness Change (μm) d 6: Model 80.95 ± 6.16
Method: Male BALB/c mice, aged 6-8 weeks, were randomly divided into 9 groups after 1 week of acclimatization: blank control group, imiquimod model group (IMQ group, corresponding to the model groups in FIGS. 1 and 2), clobetasol propionate cream group (CLO group), TYKI (BMS-986165) group, IRAK4 protein degrader KT-474 (from patent WO2020113233) group (100 mg/kg), and the compound of the present disclosure (at an appropriate dose), with 6-7 mice in each group. One day before modeling, the hair on the backs of the mice was removed with depilatory cream, with a depilated area of 2×2 cm^2. On the day of modeling, IMQ cream was used for modeling, and the corresponding drugs were administered intragastrically for treatment. The compound of the present disclosure (at an appropriate dose) was administered intragastrically once daily, and IMQ cream was applied to the hairless area on the back and left ear of mice 2 h after the first administration. […] The blank group and the IMQ group were administered with vehicle intragastrically twice daily (in the morning and evening), with an 8-h interval between the two intragastric administrations. At 2 h after the first intragastric administration, vaseline and IMQ cream were applied topically to the depilated back and ears of the mice, respectively. The dosage of IMQ cream administered to the depilated area on the back and the left ear was 80 mg and 10 mg, respectively, and the mice in each group were administered the cream for 5 consecutive days.
Reference was made to the Psoriasis Area and Severity Index (PASI) scoring criteria. The psoriasis, erythema, and thickness of skin lesions on the back were scored from 0 to 4 every morning from day 1 of modeling, with the scoring criteria as shown in Table 28. The 3 were added up to obtain a total score, i.e., a total PASI score. The ear thickness of the left ear of the mouse was measured using a digital vernier caliper three times every morning from day 1 of modeling, to obtain a mean value.

[1] = system: LPS/IL-1β-induced IL-6 secretion in human peripheral blood mononuclear cells (PBMCs); experiment: Inhibition of LPS/IL-1β-induced IL-6 secretion in human PBMCs (IL-6 ELISA); type: cell-based; details: PBMC, LPS 10 ng/mL + IL-1β 20 ng/mL, 24 h pre-incubation, 20 h stimulation
Summary of the method: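 IC50 values come from fitted curves of IL-6 levels, determined by ELISA (OD450, standard curve) in supernatants diluted 200-fold. Human PBMCs received 5-fold serial compound dilutions (top 1 μM) for 24 h before a 20 h challenge with final 10 ng/mL LPS and 20 ng/mL IL-1β, 37 °C, 5% CO2.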

[2] = system: DSS-induced enteritis model; experiment: DSS-induced enteritis (colitis) model; type: in vivo, mice; details: po, QD, Model 10.33 ± 1.11, Mean ± SD, n = 7
Text: The experimental mice were pre-acclimatized in the animal facility for one week; at the beginning of the experiment, the mice were given medication intragastrically daily according to their body weight. After the completion of intragastric administration in each group, mice had direct access to water bottles for free drinking. The blank group received normal water, while the other groups received pre-prepared DSS water. Each afternoon, the mice's abdomens were massaged to stimulate defecation, and one fecal pellet was collected onto a white porcelain plate. Fecal consistency was judged and recorded according to Table 30. The fecal occult blood qualitative test kit (Yuanye Biotechnology, #R24187-300T) was used to test for occult blood in feces and the results were interpreted according to Table 31.

[3] = Pharmacokinetic experiment on SD rats (iv and intragastric); type: in vivo; details: Sprague-Dawley, rat, plasma; for Cmax: read-out: Peak plasma concentration Cmax
Method: Pharmacokinetic experiment on SD rats: in this experiment, two administration modes: oral intragastric administration and tail vein injection were selected. Oral administration was performed at a dose of 5 mg/kg using the compounds of the present disclosure. The administration volume was 10 mL/kg. Prior to use, an appropriate amount of the drug was accurately weighed and first dissolved in dimethyl sulfoxide (DMSO). An appropriate amount of Solutol and H2O were then added in sequence at a final volume ratio of 5% DMSO, 10% Solutol and 85% H2O. The mixture was sonicated and vortexed to homogeneity to prepare a clear drug solution with a concentration of 0.5 mg/mL. Intravenous administration was performed at a dose of 1 mg/kg using the compounds of the present disclosure. The administration volume was 10 mL/kg. Prior to use, an appropriate amount of each drug was accurately weighed separately, followed by the sequential addition of a suitable volume of PEG 400 and Saline at a final volume ratio of 20% PEG 400 to 80% Saline. The mixture was sonicated and vortexed to homogeneity to prepare a clear drug solution with a concentration of 0.1 mg/mL.
6 SD rats, each with body weight of 180-220 g, were randomly grouped into 2 groups. The animals were fasted overnight with free access to water. For the first group, intragastric administration was performed, and 200 μL of blood was collected from the orbital venous plexus into anticoagulant tubes at 15 min, 30 min, 1 h, 2 h, 4 h, 6 h, 8 h and 24 h post-administration, respectively. Within one hour, the blood samples were centrifuged at 10000 rpm for 20 m at 4° C. (preserved on an ice box prior to centrifugation). The upper supernatant, i.e., plasma, was harvested and stored in a refrigerator at −20° C. for subsequent LC-MS/MS analysis. For the second group, intravenous administration was conducted, and 200 μL of blood was collected from the orbital venous plexus into anticoagulant tubes at 5 min, 15 min, 30 min, 1 h, 2 h, 4 h, 8 h and 24 h post-administration, respectively. Within one hour, the blood samples were centrifuged at 10000 rpm for 20 min at […] (preserved on an ice box prior to centrifugation). The upper supernatant, i.e., plasma, was harvested and stored in a refrigerator at −20° C. for subsequent LC-MS/MS analysis.

AUC ([3]; iv, 1.00 mg/kg) | AUC(0-inf) ([3]; iv, 1.00 mg/kg) | Cmax ([3]; iv, 1.00 mg/kg) | bioavailability ([3]; po, ig 5.00 mg/kg vs iv 1.00 mg/kg, read-out: Oral bioavailability Fobs) | AUC ([3]; po, ig, 5.00 mg/kg) | AUC(0-inf) ([3]; po, ig, 5.00 mg/kg) | Cmax ([3]; po, ig, 5.00 mg/kg) | SMILES | PASI Score d 6 (IMQ psoriasis model; 3 mg/kg) | ΔSkin Thickness Change (μm) d 6 (IMQ psoriasis model; 3 mg/kg) | PASI Score d 6 (IMQ psoriasis model; 10 mg/kg) | ΔSkin Thickness Change (μm) d 6 (IMQ psoriasis model; 10 mg/kg) | PASI Score d 6 (IMQ psoriasis model; 30 mg/kg) | ΔSkin Thickness Change (μm) d 6 (IMQ psoriasis model; 30 mg/kg) | IC50 [1] | DAI Score d 8 ([2]; 3 mpk) | DAI Score d 8 ([2]; 10 mpk) | DAI Score d 8 ([2]; 30 mpk)
4140 ± 1290 ng·h/mL | 4220 ± 1300 ng·h/mL | 920 ± 124 ng/mL | – | – | – | – | CN(C)c1cc2nn([C@H]3CC[C@H](CN4C[C@@H](n5cc6cc(C7CCC(=O)NC7=O)c(F)cc6n5)[C@@H](F)C4)CC3)cc2cc1NC(=O)c1cnn2cccnc12 (stereo partly drawn) [TM-241] | – | – | – | – | – | – | 6.35 nM | – | – | –
1170 ± 260 ng·h/mL | 1220 ± 333 ng·h/mL | 790 ± 65.9 ng/mL | 33.2% | 1900 ± 565 ng·h/mL | 2030 ± 529 ng·h/mL | 433 ± 198 ng/mL | CN(C)c1cc2nn([C@H]3CC[C@H](CN4CC[C@@H](n5cc6cc(C7CCC(=O)NC7=O)c(F)cc6n5)[C@@H](F)C4)CC3)cc2cc1NC(=O)c1cnn2cccnc12 (stereo partly drawn) [TM-135] | – | – | – | – | – | – | 2.66 nM | – | – | –
1480 ± 167 ng·h/mL | 1700 ± 254 ng·h/mL | 272 ± 34.5 ng/mL | – | – | – | – | CN(C)c1cc2nn([C@H]3CC[C@H](CN4CCC(n5cc6c(F)cc(N7CCC(=O)NC7=O)cc6n5)CC4)CC3)cc2cc1NC(=O)c1cnn2cccnc12 [TM-174] | 6.69 ± 1.07 | 58.10 ± 17.31 μm | 7.31 ± 1.87 | 59.29 ± 18.23 μm | 4.38 ± 1.24 | 43.81 ± 16.66 μm | 1.49 nM | 3.57 ± 2.26 | 2.71 ± 1.39 | 2.71 ± 0.70

The remaining lines, values behind:

SMILES | AUC ([3]; iv, 1.00 mg/kg) | AUC(0-inf) ([3]; iv, 1.00 mg/kg) | Cmax ([3]; iv, 1.00 mg/kg) | bioavailability ([3]; po, ig 5.00 mg/kg vs iv 1.00 mg/kg, read-out: Oral bioavailability Fobs) | AUC ([3]; po, ig, 5.00 mg/kg) | AUC(0-inf) ([3]; po, ig, 5.00 mg/kg) | Cmax ([3]; po, ig, 5.00 mg/kg) | PASI Score d 6 (IMQ psoriasis model; 3 mg/kg) | ΔSkin Thickness Change (μm) d 6 (IMQ psoriasis model; 3 mg/kg) | PASI Score d 6 (IMQ psoriasis model; 10 mg/kg) | ΔSkin Thickness Change (μm) d 6 (IMQ psoriasis model; 10 mg/kg) | PASI Score d 6 (IMQ psoriasis model; 30 mg/kg) | ΔSkin Thickness Change (μm) d 6 (IMQ psoriasis model; 30 mg/kg) | IC50 [1] | DAI Score d 8 ([2]; 3 mpk) | DAI Score d 8 ([2]; 10 mpk) | DAI Score d 8 ([2]; 30 mpk)
CN(C)c1cc2nn([C@H]3CC[C@H](CN4C[C@@H](n5cc6cc(N7CCC(=O)NC7=O)ccc6n5)[C@@H](F)C4)CC3)cc2cc1NC(=O)c1cnn2cccnc12 [TM-205] | – | – | – | – | – | – | – | 7.29 ± 1.99 | 65.71 ± 10.23 μm | 6.75 ± 1.28 | 52.62 ± 9.59 μm | 4.84 ± 0.80 | 53.10 ± 12.95 μm | 2.47 nM | 4.86 ± 1.55 | 3.29 ± 1.67 | 2.71 ± 0.70
CN(C)c1cc2nn([C@H]3CC[C@H](CN4C[C@@H](F)[C@H](n5cc6cc(C7CCC(=O)NC7=O)ccc6n5)C4)CC3)cc2cc1NC(=O)c1cnn2cccnc12 (stereo partly drawn) [TM-244] | 2010 ± 361 ng·h/mL | 2440 ± 585 ng·h/mL | 784 ± 126 ng/mL | – | – | – | – | – | – | – | – | – | – | 4.95 nM | – | – | –
CN(C)c1cc2nn([C@H]3CC[C@H](CN4C[C@@H](F)[C@H](n5cc6cc(C7CCC(=O)NC7=O)c(F)cc6n5)C4)CC3)cc2cc1NC(=O)c1cnn2cccnc12 (stereo partly drawn) [TM-245] | 2910 ± 62.8 ng·h/mL | 2980 ± 114 ng·h/mL | 554 ± 60.7 ng/mL | – | – | – | – | – | – | – | – | – | – | 2.58 nM | – | – | –
CN(C)c1cc2nn([C@H]3CC[C@H](CN4C[C@@H](F)[C@@H](n5cc6cc(C7CCC(=O)NC7=O)c(F)cc6n5)C4)CC3)cc2cc1NC(=O)c1cnn2cccnc12 (stereo partly drawn) [TM-240] | 2630 ± 172 ng·h/mL | 2670 ± 175 ng·h/mL | 652 ± 32 ng/mL | – | – | – | – | – | – | – | – | – | – | 1.09 nM | – | – | –
CN(C)c1cc2nn([C@H]3CC[C@H](CN4C[C@H](F)[C@@H](n5cc6cc(C7CCC(=O)NC7=O)c(F)cc6n5)C4)CC3)cc2cc1NC(=O)c1cnn2cccnc12 (stereo partly drawn) [TM-249] | 2280 ± 190 ng·h/mL | 2400 ± 354 ng·h/mL | 613 ± 39.8 ng/mL | – | – | – | – | – | – | – | – | – | – | 3.08 nM | – | – | –
